Assay results published in EPA's ToxRefDB 2.

Tests used:
[1] = system: rat; settings: Fertility (Segment I), Oral, Gavage/Intubation, dose end: 1 generation, group: parental
[2] = system: rat; settings: Prenatal developmental toxicity study, Oral, Gavage/Intubation, dose end: 18 GD
[3] = system: rabbit; settings: Prenatal developmental toxicity study; Oral; Gavage/Intubation; dose end: 19 GD; group: maternal; reproductive / reproductive performance / aborted / aborted + reproductive / reproductive performance / resorptions / resorptions + systemic…
[4] = system: mouse; settings: Sub-acute repeat dose toxicity, Oral, Gavage/Intubation, dose end: 14 day, group: systemic
[5] = system: rat; settings: Sub-acute repeat dose toxicity; wistar; Oral; Gavage/Intubation; dose end: 14 day; group: systemic; systemic / hematology / [other] / [other]
[6] = system: rat; settings: Chronic toxicity, Oral, Gavage/Intubation, dose end: 182 day, group: systemic
[7] = system: primate; settings: Subchronic oral toxicity in nonrodent, Gavage/Intubation, dose end: 91 day, group: systemic, systemic / pathology microscopic / intestine small / erosion
[8] = system: dog; settings: Subchronic oral toxicity in nonrodent, beagle, Gavage/Intubation, dose end: 91 day, group: systemic, systemic / in life observation / clinical signs / emesis + systemic / organ weight / liver / absolute + systemic / pathology microscopic / …
[9] = system: rat; settings: Peri- and post-natal toxicity study (Segment III), Oral, Gavage/Intubation, dose end: 1 generation
[10] = system: rat; settings: Sub-acute repeat dose toxicity, Oral, Gavage/Intubation, dose end: 14 day, group: systemic
[11] = system: rat; settings: Multigenerational reproductive toxicity study, wistar, Oral, Feed, dose end: 2 generation
[12] = system: rat; settings: Chronic toxicity; wistar; Oral; Feed; dose end: 104 week; group: systemic; systemic / pathology microscopic / eye / degeneration + systemic / pathology microscopic / prostate / fibrosis + systemic / pathology …
[13] = system: dog; settings: Chronic toxicity, beagle, Oral, Feed, dose end: 52 week, group: systemic
[14] = system: rabbit; settings: Prenatal developmental toxicity study; himalayan; Oral; Gavage/Intubation; dose end: 28 GD; group: maternal; systemic / in life observation / food consumption / food consumption + systemic / organ weight / adrenal gland / absolute + systemic / organ…
[15] = system: rat; settings: Carcinogenicity, wistar, Oral, Feed, dose end: 24 month, group: systemic
[16] = system: dog; settings: Subchronic oral toxicity in nonrodent, beagle, Feed, dose end: 6 month, group: systemic
[17] = system: rat; settings: Subchronic oral toxicity in rodents, wistar, [Not Specified], dose end: 3 month, group: systemic
[18] = system: mouse; settings: Subchronic oral toxicity in rodents, other, Feed, dose end: 90 day, group: systemic, systemic / clinical chemistry / cholesterol / cholesterol + systemic / clinical chemistry / triglycerides / triglycerides + systemic / organ…
[19] = system: mouse; settings: Carcinogenicity, other, Oral, Feed, dose end: 18 month, group: systemic
[20] = systemic / in life observation / body weight / body weight + systemic / in life observation / food consumption / food consumption
[21] = group: developmental, developmental / developmental malformation / bone / delayed ossification + developmental / developmental malformation / bone / [other] + …
[22] = group: maternal, systemic / in life observation / body weight / body weight gain + systemic / in life observation / clinical signs / abnormal feces + …
[23] = systemic / clinical chemistry / [other] / [other] + systemic / clinical chemistry / cytochrome p450, nos / cytochrome p450, nos + systemic…
[24] = systemic / clinical chemistry / albumin / albumin + systemic / clinical chemistry / calcium / calcium + systemic / clinical chemistry / …
[25] = systemic / organ weight / kidney / absolute + systemic / pathology microscopic / intestine small / erosion
[26] = group: maternal, reproductive / offspring survival early / dead fetuses / dead fetuses + reproductive / reproductive performance / dystocia / dystocia + …
[27] = group: maternal, reproductive / offspring survival early / litter size / litter size
[28] = group: parental, systemic / in life observation / clinical signs / body cold to touch + systemic / in life observation / clinical signs / cannibalism + …
[29] = group: parental, systemic / in life observation / clinical signs / body cold to touch + systemic / in life observation / clinical signs / dehydration + …
[30] = systemic / clinical chemistry / [other] / [other]
[31] = systemic / hematology / leukocyte (wbc) count differential / leukocyte (wbc) + systemic / in life observation / body weight / body weight …
[32] = group: offspring, systemic / organ weight / liver / absolute
[33] = group: parental, systemic / organ weight / epididymis / absolute + systemic / organ weight / adrenal gland / absolute
[34] = systemic / hematology / reticulocyte / reticulocyte + systemic / organ weight / adrenal gland / absolute + systemic / organ weight / adrenal…
[35] = systemic / organ weight / adrenal gland / absolute + systemic / organ weight / adrenal gland / relative to body weight + systemic / clinical…
[36] = systemic / pathology microscopic / liver / eosinophilic focus + systemic / pathology microscopic / lung / foam cell aggregation
[37] = systemic / pathology microscopic / liver / eosinophilic focus + systemic / pathology microscopic / lung / foam cell aggregation + systemic…
[38] = systemic / organ weight / kidney / nos + systemic / organ weight / prostate / nos + systemic / organ weight / adrenal gland / nos + systemic…
[39] = systemic / organ weight / prostate / nos + systemic / organ weight / adrenal gland / nos + systemic / organ weight / epididymis / nos + …
[40] = systemic / organ weight / adrenal gland / relative to body weight + systemic / organ weight / brain / relative to body weight + systemic / …

CC(C)(C)c1cc(/C=C2\SC(N)=NC2=O)cc(C(C)(C)C)c1O.CS(=O)(=O)O [Darbufelone mesylate]
LEL ([1]; systemic / in life observation / body weight / body weight): 75 mg/kg/day | LOAEL [1, 20]: > 100 mg/kg/day | NEL [1, 20]: 35 mg/kg/day | NOAEL [1, 20]: ≥ 100 mg/kg/day | LOAEL [2, 21]: > 75 mg/kg/day | NOAEL [2, 21]: ≥ 75 mg/kg/day | LOAEL [2, 22]: > 75 mg/kg/day | NOAEL [2, 22]: ≥ 75 mg/kg/day | LOAEL [3]: > 35 mg/kg/day | NOAEL [3]: ≥ 35 mg/kg/day | LOAEL [4, 23]: > 800 mg/kg/day | NOAEL [4, 23]: ≥ 800 mg/kg/day | NEL ([4]; systemic / organ weight / liver / absolute): < 35 mg/kg/day | LEL [5]: 1 mg/kg/day | LOAEL [5]: > 75 mg/kg/day | NEL [5]: < 1 mg/kg/day | NOAEL [5]: ≥ 75 mg/kg/day | LOAEL [6, 24]: > 75 mg/kg/day | NOAEL [6, 24]: ≥ 75 mg/kg/day | LEL [6, 25]: 5 mg/kg/day | NEL [6, 25]: < 5 mg/kg/day | LEL [7]: 10 mg/kg/day | LOAEL [7]: > 50 mg/kg/day | NEL [7]: 5 mg/kg/day | NOAEL [7]: ≥ 50 mg/kg/day | LEL [8]: 2 mg/kg/day | LOAEL [8]: > 10 mg/kg/day | NEL [8]: < 2 mg/kg/day | NOAEL [8]: ≥ 10 mg/kg/day | LEL [9, 26]: 1 mg/kg/day | NEL [9, 26]: < 1 mg/kg/day | LOAEL [9, 27]: > 2 mg/kg/day | NOAEL [9, 27]: ≥ 2 mg/kg/day | LEL [9, 28]: 1 mg/kg/day | NEL [9, 28]: < 1 mg/kg/day | LOAEL [9, 29]: > 2 mg/kg/day | NOAEL [9, 29]: ≥ 2 mg/kg/day | LEL [10, 30]: 10 mg/kg/day | NEL [10, 30]: < 10 mg/kg/day | LOAEL [10, 31]: > 1000 mg/kg/day | NOAEL [10, 31]: ≥ 1000 mg/kg/day

C=CC1(C)OC(=O)N(c2cc(Cl)cc(Cl)c2)C1=O (stereo unspecified) [Vinclozolin]
LEL [11, 32]: 4.1 mg/kg/day | LOAEL [11, 32]: > 4.1 mg/kg/day | NEL [11, 32]: 2 mg/kg/day | NOAEL [11, 32]: ≥ 4.1 mg/kg/day | LEL [11, 33]: 2 mg/kg/day | LOAEL [11, 33]: > 4.1 mg/kg/day | NEL [11, 33]: < 2 mg/kg/day | NOAEL [11, 33]: ≥ 4.1 mg/kg/day | LEL [12]: 7 mg/kg/day | LOAEL [12]: 7 mg/kg/day | NEL [12]: < 7 mg/kg/day | NOAEL [12]: < 7 mg/kg/day | LOAEL [13, 34]: 47 mg/kg/day | NEL [13, 34]: 2.4 mg/kg/day | NOAEL [13, 34]: 4.8 mg/kg/day | LEL [13, 35]: 4.8 mg/kg/day | LEL [14]: 200 mg/kg/day | LOAEL [14]: 200 mg/kg/day | NEL [14]: 50 mg/kg/day | NOAEL [14]: 50 mg/kg/day | LOAEL [15, 36]: 2.3 mg/kg/day | NOAEL [15, 36]: < 2.3 mg/kg/day | LEL [15, 37]: 2.3 mg/kg/day | NEL [15, 37]: < 2.3 mg/kg/day | LOAEL ([16]; systemic / organ weight / adrenal gland / absolute + systemic / organ weight / adrenal gland / relative to body weight): 7.5 mg/kg/day | NEL [16, 35]: 2.5 mg/kg/day | NOAEL [16, 35]: 2.5 mg/kg/day | LEL ([16]; systemic / organ weight / adrenal gland / absolute + systemic / organ weight / adrenal gland / relative to body weight + systemic / organ …): 7.5 mg/kg/day | LOAEL [17, 38]: > 225 mg/kg/day | NOAEL [17, 38]: ≥ 225 mg/kg/day | LEL [17, 39]: 50 mg/kg/day | NEL [17, 39]: < 50 mg/kg/day | LEL [18]: 230 mg/kg/day | LOAEL [18]: 230 mg/kg/day | NEL [18]: 20 mg/kg/day | NOAEL [18]: 20 mg/kg/day | LOAEL ([19]; systemic / in life observation / body weight / body weight gain): 20.6 mg/kg/day | LEL [19, 40]: 2.1 mg/kg/day | NEL [19, 40]: < 2.1 mg/kg/day | NOAEL [19, 40]: 2.1 mg/kg/day
